From patent US20110319392A1, “Thiazole Sulfonamide And Oxazole Sulfonamide Kinase Inhibitors” (priority 2009, published 2011) come the findings set out here.

Assay [1] relates to HN5 tumor cells. The experiment in a line: Cell growth inhibition assay (CellTiter-Glo), HN5. To be noted: 3 days incubation. It is filed as cell-based, Human. In short, it runs like this:
(§1)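 Cells seeded at 500/well (HN5 and HT-29 in high-glucose DMEM/10% FBS; A375P F11s in RPMI/10% FBS with pyruvate; SK-MEL-3 in McCoy's 5A/15% FBS), then exposed next day to 1:3 serial compound dilutions (0.2% DMSO) for 3 days at 37° C. CellTiter-Glo luminescence measured ATP; IC50 derived by 4-parameter fit.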
(In general: ATP-based viability assays read luminescence as a measure of living cells.)

Assay [2] relates to HT-29 tumor cells. Briefly: Cell growth inhibition assay (CellTiter-Glo), HT-29. It is filed as cell-based, Human. The following applies: for IC50: Homo sapiens. The gist of the method: as §1
Assay [3] deals with A375P F11s tumor cells. Briefly: Cell growth inhibition assay (CellTiter-Glo), A375P F11s. It is filed as cell-based, Human. To be noted: for IC50: Homo sapiens. The gist of the method: as §1
Assay [4] has as its target T1, EGFR (Homo sapiens, UniProt P00533).
T1 construct: made in house; host or cells: baculovirus expression system
Briefly: EGFR substrate phosphorylation assay (HTRF). It is filed as biochemical. In short, it runs like this: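 Baculovirus-expressed EGFR (0.8 nM) or ErbB2 (10 nM) in enzyme mix, preincubated 1 h at 20 °C with compound (0.00027–47.6 μM final), then 90 min at 20 °C with substrate mix of 20 μM ATP, 0.8 uM biotinylated Peptide C, MnCl2, MOPS pH 7.5. Phosphotyrosine by HTRF; pIC50 reported.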
For orientation: In TR-FRET formats the signal depends on donor and acceptor labels being close together.

T1 sequence (P00533 25-1210): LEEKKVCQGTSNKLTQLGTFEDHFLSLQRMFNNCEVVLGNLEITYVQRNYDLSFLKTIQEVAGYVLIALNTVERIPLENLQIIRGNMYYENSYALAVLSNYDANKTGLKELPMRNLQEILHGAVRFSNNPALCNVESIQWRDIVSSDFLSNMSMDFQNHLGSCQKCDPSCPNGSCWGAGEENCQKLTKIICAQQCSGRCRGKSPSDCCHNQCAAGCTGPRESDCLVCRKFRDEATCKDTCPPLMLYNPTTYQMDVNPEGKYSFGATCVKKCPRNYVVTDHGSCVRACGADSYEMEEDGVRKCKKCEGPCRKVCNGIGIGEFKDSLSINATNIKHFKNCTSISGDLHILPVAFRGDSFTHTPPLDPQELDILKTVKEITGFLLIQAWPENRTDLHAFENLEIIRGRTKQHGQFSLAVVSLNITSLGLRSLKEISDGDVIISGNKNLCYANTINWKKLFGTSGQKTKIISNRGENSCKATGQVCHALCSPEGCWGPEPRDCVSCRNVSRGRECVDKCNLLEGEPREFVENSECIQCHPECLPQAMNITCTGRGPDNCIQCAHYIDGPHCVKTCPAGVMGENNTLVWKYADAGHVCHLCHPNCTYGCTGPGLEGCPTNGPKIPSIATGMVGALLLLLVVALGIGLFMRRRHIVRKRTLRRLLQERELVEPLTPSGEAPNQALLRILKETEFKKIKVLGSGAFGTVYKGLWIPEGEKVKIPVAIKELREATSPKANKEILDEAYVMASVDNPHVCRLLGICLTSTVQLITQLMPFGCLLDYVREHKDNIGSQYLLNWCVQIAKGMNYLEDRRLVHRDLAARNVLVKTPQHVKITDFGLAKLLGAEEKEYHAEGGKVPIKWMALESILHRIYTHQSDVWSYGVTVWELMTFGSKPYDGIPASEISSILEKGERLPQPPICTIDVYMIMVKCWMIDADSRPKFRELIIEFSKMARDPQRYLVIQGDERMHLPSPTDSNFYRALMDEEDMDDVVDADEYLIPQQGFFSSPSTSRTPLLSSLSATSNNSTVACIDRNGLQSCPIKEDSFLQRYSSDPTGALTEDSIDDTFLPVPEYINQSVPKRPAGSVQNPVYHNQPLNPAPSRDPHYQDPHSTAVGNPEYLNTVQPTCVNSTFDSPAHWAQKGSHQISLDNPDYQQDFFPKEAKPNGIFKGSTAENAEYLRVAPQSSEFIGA

For `CC(C)c1nc(-c2ccc(F)c(NS(=O)(=O)c3c(F)cccc3F)c2)c(-c2ccnc(Nc3ccc(N4CCC(C#N)CC4)nc3)n2)s1` [Example 24, N-{5-[5-(2-{[6-(4-Cyano-1-piperidinyl)-3-pyridinyl]amino}-4-pyrimidinyl)-2-(1-methylethyl)-1,3-thiazol-4-yl]-2-fluorophenyl}-2,6-difluorobenzenesulfonamide], the IC50 – broadly, the concentration that inhibits the measured activity by half – is more than 1 µM in assay [1] (Homo sapiens, 72 h); less than 0.1 µM in assay [2]; less than 0.1 µM in assay [3]; more than 1 µM in assay [4].
For the compound `CS(=O)(=O)CCN1CCN(c2ccc(Nc3nccc(-c4oc(N5CCCC5)nc4-c4ccc(F)c(NS(=O)(=O)c5c(F)cccc5F)c4)n3)cc2F)CC1` [Example 119], the IC50 in assay [1] (Homo sapiens, 72 h) is more than 1 µM; in assay [2], 0.1 to 1 µM; in assay [3] it was 0.1 to 1 µM; in assay [4], more than 1 µM.
Consider `COCCN1CCN(c2ccc(Nc3nccc(-c4sc(C(C)C)nc4-c4cccc(NS(=O)(=O)c5ccccc5)c4)n3)cn2)CC1` [Example 6, N-[3-(2-(1-Methylethyl)-5-{2-[(6-{4-[2-(methyloxy)ethyl]-1-piperazinyl}-3-pyridinyl)amino]-4-pyrimidinyl}-1,3-thiazol-4-yl)phenyl]benzenesulfonamide], for which the 50% inhibitory concentration (IC50) in assay [1] (Homo sapiens, 72 h) is 0.1 to 1 µM; in assay [2], less than 0.1 µM; in assay [3] it was less than 0.1 µM; in assay [4], more than 1 µM.
Regarding `CCOc1ccc(Nc2nccc(-c3sc(C(C)C)nc3-c3ccc(F)c(NS(=O)(=O)c4c(F)cccc4F)c3)n2)cc1N1CCN(CCF)CC1` [Example 98], the IC50 in assay [1] (Homo sapiens, 72 h) was more than 1 µM; in assay [2], more than 1 µM; in assay [3], 0.1 to 1 µM; in assay [4], less than 0.1 µM.
For the compound `Cc1cc(Nc2nccc(-c3sc(C(C)C)nc3-c3ccc(F)c(NS(=O)(=O)c4c(F)cccc4F)c3)n2)ccn1` [Example 116], the IC50 in assay [1] (Homo sapiens, 72 h) was more than 1 µM; in assay [2] it was 0.1 to 1 µM; in assay [3], 0.1 to 1 µM; in assay [4], 0.1 to 1 µM.
Take `Cc1nc(-c2cccc(NS(=O)(=O)c3c(F)cccc3F)c2)c(-c2ccnc(Nc3ccc(N4CCOCC4)nc3)n2)s1` [Example 133]: the IC50 in assay [1] (Homo sapiens, 72 h) is 0.1 to 1 µM; in assay [2], less than 0.1 µM; in assay [3], less than 0.1 µM; in assay [4], more than 1 µM.
For the compound `Cc1cc(Nc2nccc(-c3sc(C(C)(C)C)nc3-c3cccc(NS(=O)(=O)c4c(F)cccc4F)c3F)n2)ccn1` [Example 159], the IC50 in assay [1] (Homo sapiens, 72 h) was less than 0.1 µM; in assay [2] it was less than 0.1 µM; in assay [3], less than 0.1 µM; in assay [4], more than 1 µM.
As to `CCNc1nc(-c2cccc(NS(=O)(=O)c3ccccc3)c2)c(-c2ccnc(Nc3ccc(OCCN4CCCC4)c(F)c3)n2)s1` [Example 1, N-(3-(2-(Ethylamino)-5-{2-[(3-fluoro-4-[[2-(1-pyrrolidinyl)ethyl]oxy}phenyl)amino]-4-pyrimidinyl}-1,3-thiazol-4-yl)phenyl]benzenesulfonamide], the IC50 in assay [1] was 0.1 to 1 µM; in assay [4] it was less than 0.1 µM. Also, the “Activity in HT-29 Tumor Cells” value in assay [2] was “++ (activity of between 100 nM and 1 μM in HT-29 tumor cells)”. For the same compound, the “Activity in A375P F11s Tumor Cells” value in assay [3] was “++ (activity of between 100 nM and 1 μM in A375P F11s tumor cells)”.
In the case of `CS(=O)(=O)c1cccc(Nc2nccc(-c3sc(N4CCOCC4)nc3-c3cccc(NS(=O)(=O)c4c(F)cccc4F)c3Cl)n2)c1` [Example 145], the IC50 was more than 1 µM in assay [1] (Homo sapiens, 72 h); less than 0.1 µM in assay [2]; less than 0.1 µM in assay [3]; more than 1 µM in assay [4].
As for `CCNc1nc(-c2cccc(NS(=O)(=O)c3ccccc3)c2)c(-c2ccnc(Nc3ccc(OCCN4CCCC4)c(F)c3)n2)s1` [Example 65], the IC50 in assay [1] (Homo sapiens, 72 h) is 0.1 to 1 µM; in assay [2], 0.1 to 1 µM; in assay [3], 0.1 to 1 µM. Besides, the “EGFR Activity” value in assay [4] is on record as “+++ (at least one pIC50 measurement of greater than 7 against EGFR)”.
Take `CCc1nc(-c2cccc(CNS(=O)(=O)c3ccccc3)c2)c(-c2ccnc(Nc3ccc(N4CCOCC4)c(F)c3)n2)s1` [Example 34]: the IC50 was more than 1 µM in assay [1] (Homo sapiens, 72 h); more than 1 µM in assay [2]; 0.1 to 1 µM in assay [3]; more than 1 µM in assay [4].
